According to PMC11645656, “MRGPRX4 mediates phospho-drug associated pruritus in a humanized mouse model” (Science translational medicine, 2024):
Where “and” joins values, the source holds several entries; their conditions need not be identical. Identical values can stand only once. *1 amine or outer side, *2 acyl side, *3 side chain or, on linkers, in order; H or OH if unused. Where a SMILES comes first, the peptide text is derived from it. Bridges are numbered along the chain shown (N, C = ends). [ ]: non-standard residue; d: D form. X1 = CC(=O)NC(C(=O)OC(C(C)C)C(N[*:1])C(=O)[*:2])C(O)C(C)C; PhLac = O=C(O)[CH](O)Cc1ccccc1; NMeT = CN[CH](C(=O)O)[CH](C)O; NMeA = CN[CH](C)C(=O)O; NMeDha = C=C(NC)C(=O)O

Columns and labels:
[1] = biological target: T1, MRGPRX4 (S83) (Homo sapiens, UniProt Q96LA9, L83S); test: EC50 determination, intracellular calcium mobilization in MRGPRX4 stably expressed HEK293 cells (FLIPR Calcium 5, Flexstation-3); type: cell-based; parameters: Fig. 1D dose-response, calcium mobilization response (individual replicate) / calcium mobilization response (Fig. 1D dose-response raw data): unit not given here; settings: for calcium mobilization response (Fig. 1D dose-response raw data) / Fig. 1D dose-response, calcium response at Concentration (M): individual replicate values; for EC50: MRGPRX4 stably expressed HEK293 cells, calcium mobilization, read-out: EC50; for Hill coefficient: dose-response curve fitting, table S1; for Fig. 1D dose-response, calcium response at Concentration (M): propofol series
T1 construct: expressed in transfected cells
Experimental: HEK293 cells and MRGPRX4 stably expressed HEK293 cells were seeded in 100 μl culture media on 96-well plates at a density of 40,000 cells per well and incubated overnight. The next day, the media were replaced with a dye-loading solution from the FLIPR Calcium 5 assay kit (Molecular Devices), diluted in Hank's Balanced Salt Solution (HBSS) with 20 mM HEPES, pH 7.4. After 1 h of incubation at 37°C, cells were allowed to recover for 10 min in the dark at room temperature prior to performing intracellular calcium mobilization assay in a Flexstation-3 instrument with SoftMax®Pro 7.1 software (Molecular Devices). Serial concentrations of tested drugs were prepared in HBSS/HEPES solution at 3X concentration. […] Compounds were tested in triplicates and the signals were averaged. Responses were determined by subtracting the minimum signal (at the baseline before adding the drug) from the maximum signal (obtained after drug stimulation). Four-parameter logistic (4PL) curve fit was used to plot the dose-response curves. […] Both dose-response curve fitting and EC50s calculation are computed with GraphPad Prism software (version: 6.o or above).

[2] = system: MRGPRX4-expressing HEK293 cells (Gαq signaling pathway); test: Pharmacological blocker experiments: phospho-drug evoked calcium response in MRGPRX4-expressing HEK293 cells after inhibitor preincubation; settings: 30 min preincubation; 10 µM YM 254890, 20 µM U73122, 10 µM thapsigargin; stimulated with fospropofol, fosphenytoin or dexamethasone phosphate
Experimental: Various HEK293 cell lines were plated on PDL-coated glass coverslips. […] For pharmacological blocker experiments, cells were pre-incubated with signaling pathway inhibitors, including YM254890, U73122, and thapsigargin, for 30 min before imaging.
Traces of [Ca2+] from MRGPRX4-expressing HEK293 cells stimulated with (A) 1 µM
U73122 (middle), or 10 µM sarco/endoplasmic reticulum Ca2+-ATPase inhibitor thapsigargin
(right) for 30 min before imaging.
independent experiments, each performed in quadruplicate.

T1 sequence (Q96LA9 whole entry L83S): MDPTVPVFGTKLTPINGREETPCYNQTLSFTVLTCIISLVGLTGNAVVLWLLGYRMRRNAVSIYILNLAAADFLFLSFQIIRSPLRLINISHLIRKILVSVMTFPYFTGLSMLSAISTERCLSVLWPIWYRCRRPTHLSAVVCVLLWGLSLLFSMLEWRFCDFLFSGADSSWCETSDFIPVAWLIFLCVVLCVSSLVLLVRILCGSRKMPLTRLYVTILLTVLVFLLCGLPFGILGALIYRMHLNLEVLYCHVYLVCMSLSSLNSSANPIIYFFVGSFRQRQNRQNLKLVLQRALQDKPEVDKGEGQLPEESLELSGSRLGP

CCC1(c2ccccc2)NC(=O)NC1=O (centres unmarked) [Phenylethylhydantoin]
calcium mobilization response (Fig. 1D dose-response raw data) ([1]; concentration 4.88281e-7 M): -36.084 and -46.830 and -25.168 and -25.995 and -41.232 and -40.854 and -21.141 and -50.216 and -36.724
calcium mobilization response (Fig. 1D dose-response raw data) ([1]; concentration 9.76563e-7 M): -38.906 and -40.253 and -36.747 and -35.963 and -45.530 and -34.413 and -90.977 and -3.770 and -21.159
calcium mobilization response (Fig. 1D dose-response raw data) ([1]; concentration 1.95313e-6 M): -39.850 and -47.267 and -41.649 and -23.282 and -47.762 and -57.722 and -64.532 and -47.904 and -16.330
calcium mobilization response (Fig. 1D dose-response raw data) ([1]; concentration 3.90625e-6 M): -41.691 and -47.727 and -40.039 and -70.885 and -55.070 and -3.502 and -50.619 and -10.963 and -67.875
calcium mobilization response (Fig. 1D dose-response raw data) ([1]; concentration 7.8125e-6 M): -54.750 and -48.340 and -51.910 and -49.343 and -57.168 and -48.489 and -88.910 and -37.952 and -28.139
calcium mobilization response (Fig. 1D dose-response raw data) ([1]; concentration 1.5625e-5 M): -44.078 and -57.965 and -55.228 and -49.591 and -44.073 and -63.607 and -50.842 and -52.493 and -53.936
calcium mobilization response (Fig. 1D dose-response raw data) ([1]; concentration 3.125e-5 M): -43.665 and -49.381 and -54.677 and -65.107 and -76.615 and -6.000 and -68.649 and -47.158 and -31.916
calcium mobilization response (Fig. 1D dose-response raw data) ([1]; concentration 6.25e-5 M): -55.764 and -53.161 and -56.227 and -7.830 and -129.161 and -28.161 and -12.225 and -71.995 and -80.931
calcium mobilization response (Fig. 1D dose-response raw data) ([1]; concentration 0.00025 M): -45.731 and -49.520 and -42.661 and -67.761 and -17.367 and -52.783 and -55.357 and -16.011 and -66.544
calcium mobilization response (Fig. 1D dose-response raw data) ([1]; concentration 0.0005 M): -37.983 and -36.120 and -36.080 and -77.623 and -5.808 and -26.753 and -42.653 and -37.379 and -30.151

C[C@]12C=CC(=O)C=C1CC[C@@H]1[C@@H]2[C@@H](O)C[C@@]2(C)[C@H]1CC[C@]2(O)C(=O)COP(=O)(O)O [Prednisolone phosphate]
EC50 [1]: 0.267 µM
Hill coefficient [1]: 0.753

CC(C)c1cccc(C(C)C)c1O[C@@H]1O[C@H](C(=O)O)[C@@H](O)[C@H](O)[C@H]1O [Propofol b-D-glucuronide]
Fig. 1D dose-response, calcium response at Concentration (M) ([1]; 9.76563e-7 M): 33.404 and 17.610 and 15.299 and 5.092 and 25.748 and 35.472 and 37.279 and 14.971 and 14.062
Fig. 1D dose-response, calcium response at Concentration (M) ([1]; 1.95313e-6 M): 24.553 and 28.290 and 26.471 and 25.162 and 11.839 and 42.312 and 38.770 and 25.122 and 15.422
Fig. 1D dose-response, calcium response at Concentration (M) ([1]; 3.90625e-6 M): -0.931 and -0.509 and -0.147 and -0.531 and -0.497 and -0.558 and -1.252 and -0.171 and -0.163
Fig. 1D dose-response, calcium response at Concentration (M) ([1]; 7.8125e-6 M): -3.944 and -3.544 and -1.450 and -3.087 and -3.091 and -2.761 and -3.250 and -1.367 and -4.322
Fig. 1D dose-response, calcium response at Concentration (M) ([1]; 1.5625e-5 M): -14.193 and -2.564 and -12.325 and -15.196 and -3.788 and -10.098 and -11.561 and -10.981 and -6.540
Fig. 1D dose-response, calcium response at Concentration (M) ([1]; 3.125e-5 M): -0.025 and -0.623 and -1.002 and -0.534 and -0.882 and -0.234 and -0.728 and -0.769 and -0.154
Fig. 1D dose-response, calcium response at Concentration (M) ([1]; 6.25e-5 M): -11.462 and -7.089 and -18.181 and -19.274 and -11.464 and -5.994 and -9.636 and -15.344 and -11.752
Fig. 1D dose-response, calcium response at Concentration (M) ([1]; 0.00025 M): -8.452 and -1.759 and -25.311 and -28.879 and -1.342 and -5.301 and -7.817 and -14.781 and -12.923
Fig. 1D dose-response, calcium response at Concentration (M) ([1]; 0.0005 M): -2.705 and -17.232 and -3.163 and -5.843 and -6.495 and -10.762 and -7.609 and -4.103 and -11.388
Fig. 1D dose-response, calcium response at Concentration (M) ([1]; 0.001 M): -9.560 and -7.574 and -9.738 and -14.721 and -4.551 and -7.600 and -11.650 and -7.050 and -8.173

Cn1nnc(-c2ccc(-c3ccc(N4C[C@H](COP(=O)(O)O)OC4=O)cc3F)cn2)n1 [Tedizolid phosphate]
EC50 [1]: 0.157 µM
Hill coefficient [1]: 1.352

COc1ccc2c(c1)CC[C@@H]1[C@@H]2CC[C@]2(C)[C@@H](NCCCCCCN3C(=O)C=CC3=O)CC[C@@H]12 [U73122]
Effect of inhibitor on phospho-drug evoked calcium response [2]: abolished the calcium response

C=C1C(=O)NC(C)C(=O)N(C)C(C)C(=O)NC(C(OC(=O)C(NC(C)=O)C(O)C(C)C)C(C)C)C(=O)N(C)C(C(C)OC)C(=O)OC(C)C(NC(C)=O)C(=O)OC(Cc2ccccc2)C(=O)N1C (centres unmarked) [YM-254890] (Ac-T[PhLac][NMeDha]A[NMeA][X1][NMeT](Me); ester 1-C; configuration not given here)
Effect of inhibitor on phospho-drug evoked calcium response [2]: abolished the calcium response

C/C=C(/C)C(=O)O[C@H]1C(C)=C2[C@H]([C@@H]1OC(=O)CCCCCCC)[C@@](C)(OC(C)=O)C[C@H](OC(=O)CCC)[C@@]1(O)[C@H]2OC(=O)[C@@]1(C)O [thapsigargin]
Effect of inhibitor on phospho-drug evoked calcium response [2]: abolished the calcium response

Dexamethasone palmitate
Fig. 1D dose-response, calcium mobilization response (individual replicate) ([1]; Concentration 9.76563e-7 M): -18.225 and -22.739 and -7.984 and -16.162 and -15.021 and -13.070 and 2.408 and -2.265 and -6.745
Fig. 1D dose-response, calcium mobilization response (individual replicate) ([1]; Concentration 1.95313e-6 M): -6.511 and -7.350 and 3.472 and -4.164 and -15.203 and -5.200 and 2.167 and -2.706 and -6.484
Fig. 1D dose-response, calcium mobilization response (individual replicate) ([1]; Concentration 3.90625e-6 M): -3.747 and 10.479 and -10.773 and -3.912 and -11.558 and -2.335 and 1.476 and 2.520 and -1.305
Fig. 1D dose-response, calcium mobilization response (individual replicate) ([1]; Concentration 7.8125e-6 M): -30.862 and -16.831 and -16.502 and -2.263 and -11.827 and -17.176 and -5.630 and 3.868 and -9.469
Fig. 1D dose-response, calcium mobilization response (individual replicate) ([1]; Concentration 1.5625e-5 M): -23.657 and 30.652 and -26.797 and 1.282 and -0.449 and -0.613 and 8.674 and 6.385 and -0.252
Fig. 1D dose-response, calcium mobilization response (individual replicate) ([1]; Concentration 3.125e-5 M): 88.602 and 69.392 and 95.399 and 41.739 and 60.580 and 65.413 and 42.682 and 17.645 and 71.002
Fig. 1D dose-response, calcium mobilization response (individual replicate) ([1]; Concentration 6.25e-5 M): 155.837 and 167.386 and 158.681 and 72.199 and 72.835 and 105.522 and 59.878 and 78.793 and 128.090
Fig. 1D dose-response, calcium mobilization response (individual replicate) ([1]; Concentration 0.00025 M): 281.902 and 277.911 and 231.255 and 145.042 and 106.318 and 115.112 and 141.417 and 113.731 and 129.258
Fig. 1D dose-response, calcium mobilization response (individual replicate) ([1]; Concentration 0.0005 M): 346.180 and 361.547 and 346.996 and 139.147 and 134.114 and 120.302 and 148.855 and 141.620 and 226.966
Fig. 1D dose-response, calcium mobilization response (individual replicate) ([1]; Concentration 0.001 M): 354.688 and 329.354 and 273.082 and 127.830 and 137.045 and 134.530 and 140.483 and 130.182 and 155.284
Hill coefficient [1]: 1.502
